Values of other authors as cited in patent US20250275948A1, “(N-[4-(2,3-DIHYDRO-1H-INDEN-5-YL)-1,3-THIAZOL-2-YL]-2-[4-METHYL-4-(NAPHTHALEN-2-YL)-2,5-DIOXOIMIDAZOLIDIN-1-YL]ACETAMIDE AS STABILIZER OF CLOCK:BMAL1 INTERACTION FOR THE TREATMENT OF CIRCADIAN RHYTHM DISEASES AND DISORDERS” (KOC UNIVERSITESI, priority 2022, published 2025).

What was measured:
Settings in all cases: cited from earlier work
[1] = test system: REV-ERB
[2] = test system: gluconeogenesis
[3] = test system: CRYs

CC(C)(C)OC(=O)CN(Cc1ccc(Cl)cc1)Cc1ccc([N+](=O)[O-])s1 [GSK4112]
effect on REV-ERB repressor function [1]: enhance REV-ERB's repressor function toward Bmal1 transcription

CS(=O)(=O)N(Cc1ccco1)CC(O)Cn1c2ccccc2c2ccccc21 (stereo not drawn) [KL001]
effect on gluconeogenesis [2]: suppresses the gluconeogenesis
effect on stability of CRYs [3]: increases stability of the CRYs
